This note sets out measurements from PubChem BioAssay AID623936 (Southern Research Specialized Biocontainment Screening …, 2012).

For this assay, the system named is Vero 76 cells viability (cytotoxicity). Briefly: Vero 76 cell cytotoxicity, dose response, cytotoxicity control, set 4 (AID 623936).

On to `CN(C(=O)Cc1cccs1)c1nc2c(s1)CCCC2`, for which the CC50 was 18.5 µM.

One may read the CC50 as the concentration giving 50% cytotoxicity.
